The record followed here is patent publication US6800630B2, “Pyrimidine derivatives having antitumor effect” (Shionogi & Co., Ltd., priority 2000, dated 2004).

What all share (type): cell-based
Experiment [1] deals with signal derived from Ras oncogene products (DT-R cells, pRRE3-luc transfected v-ki-ras-transformed NIH373 cells). Put plainly: Inhibitory effect against cellular signaling derived from Ras oncogene products: RRE-luciferase reporter, Minimal Active Concentration (MAC) at which DT-C and DT-R activities dissociate. Conditions: minimal concentration at which luciferase activities of DT-C and DT-R cells dissociated. The source says:
(§1) Test Example 1 Inhibitory effect against cellular signaling derived from Ras oncogene products
(§2) Based on the reporter plasmid (pGV-P (Toyo Ink, Japan)), in which luciferase gene was ligated to SV40-derived minimal promoter, we constructed a plasmid designated pRRE3-luc by inserting 3 copies of chemically synthesized oligonucleotides (Sequence: CAGGATATGACTCT, derived from mouse NVL-3 (M. A. Reddy et al.(1992)Mol. Endocrinol., 6, 1051)) into upstream of the promoter. v-ki-ras-transformed NIH373 cells (DT cells, provided by Dr. Makoto Noda (Kyoto Univ., School of medicine)) were transfected with this plasmid by liposome-mediated transfection and transfected cell lines stably incorporated and maintained each plasmid were obtained. We named pGV-P and pRRE3-transfected cell line as DT-C and DT-R, respectively and used in the assay described below.
(§3) i) All the cell lines were cultured in Dulbecco's Modified Essential Medium (DMEM: 10% Fetal Calf Serum(FCS: Hyclone, USA)) including […] kanamycin (Meiji Seika, Japan) in humidified incubator under condition of 5% CO2 at 37° C.
(§4) ii) DT-C and DT-R cells were seeded at 2500 cells/well into flat-bottom 96 well multiplate (Sumitomo bakelite) and incubated for 24 hours.
(§5) iii) Test compounds were prepared as 1 mg/ml DMSO solution.
(§6) iv) The solution of test compounds were added to the culture. Tested compounds are used at the concentration from […] to 0.51 ng/ml with 3-fold dilution.
(§7) v) After 24 hours, the culture supernatant was completely aspirated and 20 μl of cell-lysing solution (PGC-50 (Toyo Ink, Japan)) was added before cells were dried up. In order to lyse the cells completely, multiwell plates were left at room temperature for 10 to 30 min. The plates were wrapped up and stored at −20° C. till the day of measurement.
(§8) i) Melt the samples by putting 96 well multiplate at 37° C. and add 90 μl/well 25 mM Tris (pH 7.5).
(§9) ii) Transfer 50 μl of the sample (110 μl) to the 96 well microplate (Microlite 1 (Dynatech)) for measurement.
(§10) iii) Measure the samples by the luminometer, LUMINOUS CT9000D (Dia-Yatron, Japan). We used Pickagene luminescence kit PGL2000 or LT2.0 (Toyo Ink, Japan) as enzyme substrates for luminescence measurement (50 μl/well).
(§11) i) The luciferase activity of DT-C cells and DT-R cells were plotted in the graph where the relative activity and the compound concentration were expressed as Y-axis and X-axis, respectively. We judged by the degree of dissociation between the activities of DT-C cells and DT-R cells as an index.
ii) Concretely, efficacy of the compound was expressed by two values described below.
a) Among the points of concentration tested, the minimal concentration (Minimal Active Concentration: MAC), at which the activities of DT-C cells and DT-R cells dissociated, was shown as an index of efficacy of the compound.
(In a reporter assay the amount or activity of a reporter protein is the signal.)

Experiment [2] relates to DT-C cells (pGV-P transfected v-ki-ras-transformed NIH373 cells). Nature of the experiment: Luciferase activity of DT-C control cells (IC50-C), index of non-specific transcription-inhibitory effect or cytotoxicity. As to conditions: tested concentration nearest to 50% inhibition in DT-C cells.
Source text: as §1, §2, §3, §4, §5, §6, §7, §8, §9, §10, §11
b) Among the points of concentration tested, the concentration which is the nearest to 50% inhibition concentration at DT-C cells (IC50-C), was shown as an index of non-specific transcription-inhibitory effect or of cytotoxicity. In case of positive compounds, 50% inhibition concentration in DT-C cells which was higher than the active concentration was expressed as IC50-C.

In another experiment the test system is H460. Nature of the experiment: In vitro cell growth inhibition test, MTT assay. Conditions: MTT assay 4 days after compound addition. The source says: [The source words this procedure for another cell line and reports this cell line under the same test.] (§12) Test Example 2 In vitro cell growth inhibition test Cells and MTT assay
(§13) Human squamous lung cancer […], human squamous lung cancer Ma44, human lung adenocarcinoma A549, human colon cancer HT29 and human pancreas cancer PANC-1 were used.
For orientation: Tetrazolium assays rely on reduction of a dye to a coloured formazan, in cell work by metabolically active cells.

The test system of another experiment is human colon cancer HT29. Nature of the experiment: In vitro cell growth inhibition test, MTT assay. Conditions: MTT assay 4 days after compound addition.
Source text: as §12, §13

Experiment [3] relates to human lung adenocarcinoma A549. Put plainly: In vitro cell growth inhibition test, MTT assay. As to conditions: MTT assay 4 days after compound addition.
Source text: as §12, §13

Experiment [4] deals with human pancreas cancer PANC-1. Nature of the experiment: In vitro cell growth inhibition test, MTT assay. As to conditions: MTT assay 4 days after compound addition.
Source text: as §12, §13

The subject of experiment [5] is human squamous lung cancer Ma44. Nature of the experiment: In vitro cell growth inhibition test, MTT assay. Conditions: MTT assay 4 days after compound addition.
Source text: as §12, §13

The test system of experiment [6] is human squamous lung cancer RERF-RC-AI. Put plainly: In vitro cell growth inhibition test, MTT assay. As to conditions: MTT assay 4 days after compound addition.
Source text: as §12, §13

Values after ≈ are worked out from the molar mass of the structure shown.

For the compound `CCCSC(=Nc1nc(C)ncc1CSc1nnc(-c2ccc([N+](=O)[O-])cc2)o1)NCC` [Compound A-8], the “MAC (Minimal Active Concentration)” value in experiment [1] turned out to be 0.123 µg/mL. For the same compound, the “IC50 (IC50-C)” value in experiment [2] is more than 10 µg/mL. Besides, in the experiment with H460, the “IC50 H460” value was determined as 0.0068 µg/mL (≈ 0.0144 µM). Further, the “IC50 HT-29” value in the experiment with human colon cancer HT29 came to 0.0414 µg/mL (≈ 0.0874 µM). Besides, the “IC50 A549” value in experiment [3] is 0.0093 µg/mL (≈ 0.0196 µM). The “IC50 PANC-1” value in experiment [4] worked out at 0.0371 µg/mL (≈ 0.0783 µM). Also, the “IC50 Ma44” value in experiment [5] came out at 0.0341 µg/mL (≈ 0.072 µM). Also, the “IC50 RERF-LC-AI” value in experiment [6] amounted to 0.0278 µg/mL (≈ 0.0587 µM).

In the case of `CCCNC(=Nc1nc(C)ncc1CSc1nnc(-c2ccc(N)cc2)o1)SC` [Compound A-12], the “MAC (Minimal Active Concentration)” value in experiment [1] stood at 0.0137 µg/mL. Further, the “IC50 (IC50-C)” value in experiment [2] was more than 10 µg/mL. For the same compound, the “IC50 H460” value with H460 is 0.0115 µg/mL (≈ 0.0268 µM). In addition, in the experiment on human colon cancer HT29, the “IC50 HT-29” value worked out at 0.0063 µg/mL (≈ 0.0147 µM). The “IC50 A549” value in experiment [3] came out at 0.008 µg/mL (≈ 0.0186 µM). The “IC50 PANC-1” value in experiment [4] was found to be 0.0091 µg/mL (≈ 0.0212 µM). Further, in experiment [5], the “IC50 Ma44” value amounted to 0.0095 µg/mL (≈ 0.0221 µM). Moreover, in experiment [6], the “IC50 RERF-LC-AI” value came out at 0.0057 µg/mL (≈ 0.0133 µM).

`CCCSC(=Nc1nc(C)ncc1CSc1nnc(-c2ccc(N)cc2)o1)NC` [Compound A-15]: the “MAC (Minimal Active Concentration)” value in experiment [1] was determined as 0.00152 µg/mL. Also, the “IC50 (IC50-C)” value in experiment [2] is more than 10 µg/mL. The “IC50 H460” value with H460 stood at 0.0153 µg/mL (≈ 0.0356 µM). Moreover, in the experiment on human colon cancer HT29, the “IC50 HT-29” value was determined as 0.0103 µg/mL (≈ 0.024 µM). For the same compound, the “IC50 A549” value in experiment [3] is 0.0111 µg/mL (≈ 0.0258 µM). The “IC50 PANC-1” value in experiment [4] was 0.0124 µg/mL (≈ 0.0289 µM). In experiment [5], the “IC50 Ma44” value is 0.0127 µg/mL (≈ 0.0296 µM). Moreover, the “IC50 RERF-LC-AI” value in experiment [6] was 0.0065 µg/mL (≈ 0.0151 µM).

In the case of `CCCSC(=Nc1nc(C)ncc1CSc1nnc(-c2ccc(N)cc2)o1)NCC` [Compound A-16], in experiment [1], the “MAC (Minimal Active Concentration)” value is less than 0.000508 µg/mL. The “IC50 (IC50-C)” value in experiment [2] was more than 10 µg/mL. Further, in the experiment with H460, the “IC50 H460” value stood at 0.0107 µg/mL (≈ 0.0241 µM). Further, the “IC50 HT-29” value with human colon cancer HT29 stood at 0.0081 µg/mL (≈ 0.0183 µM). Also, the “IC50 A549” value in experiment [3] stood at 0.0146 µg/mL (≈ 0.0329 µM). Also, in experiment [4], the “IC50 PANC-1” value stood at 0.0065 µg/mL (≈ 0.0147 µM). Further, the “IC50 Ma44” value in experiment [5] is 0.0136 µg/mL (≈ 0.0307 µM). The “IC50 RERF-LC-AI” value in experiment [6] stood at 0.0073 µg/mL (≈ 0.0165 µM).

Consider `CCCNC(=Nc1nc(C)ncc1CSc1nnc(-c2ccc(C)cc2)o1)SC` [Compound A-17], for which the “MAC (Minimal Active Concentration)” value in experiment [1] worked out at 0.0412 µg/mL. Besides, the “IC50 (IC50-C)” value in experiment [2] was more than 10 µg/mL. Besides, the “IC50 H460” value in the experiment on H460 was found to be 0.015 µg/mL (≈ 0.035 µM). Further, the “IC50 HT-29” value in the experiment with human colon cancer HT29 amounted to 0.015 µg/mL (≈ 0.035 µM). In experiment [3], the “IC50 A549” value was 0.0174 µg/mL (≈ 0.0406 µM). In experiment [4], the “IC50 PANC-1” value is 0.0107 µg/mL (≈ 0.025 µM). The “IC50 Ma44” value in experiment [5] amounted to 0.0241 µg/mL (≈ 0.0562 µM). Further, the “IC50 RERF-LC-AI” value in experiment [6] was determined as 0.0132 µg/mL (≈ 0.0308 µM).

On to `CCCNC(=Nc1nc(C)ncc1CSc1nnc(-c2ccc([N+](=O)[O-])cc2)o1)NN(C)C` [Compound A-18], for which the “MAC (Minimal Active Concentration)” value in experiment [1] worked out at 0.00457 µg/mL. Besides, the “IC50 (IC50-C)” value in experiment [2] was more than 10 µg/mL. Besides, the “IC50 H460” value in the experiment on H460 is 0.0275 µg/mL (≈ 0.0583 µM). Further, the “IC50 HT-29” value with human colon cancer HT29 turned out to be 0.0004 µg/mL (≈ 0.000848 µM). For the same compound, the “IC50 A549” value in experiment [3] was 0.0514 µg/mL (≈ 0.109 µM). Besides, the “IC50 PANC-1” value in experiment [4] came to 0.0004 µg/mL (≈ 0.000848 µM). Also, the “IC50 Ma44” value in experiment [5] came out at 0.0004 µg/mL (≈ 0.000848 µM). Moreover, the “IC50 RERF-LC-AI” value in experiment [6] worked out at 0.0004 µg/mL (≈ 0.000848 µM).
